Assay results published in ChEMBL document CHEMBL4184166 (Bioorg Med Chem Lett, 2017).

Tests used:
Cytochrome P450 3A4 [1] = target: T1, Cytochrome P450 3A4 (Homo sapiens, UniProt P08684); assay: Inhibition of human CYP3A4 expressed in HEK293 cells by fluorescence assay; format: ADME, cell-based
Cytochrome P450 1B1 [2] = target: T2, Cytochrome P450 1B1 (Homo sapiens, UniProt Q16678); assay: Inhibition of human CYP1B1 expressed in yeast microsomal membranes using 7-ethoxyresorufin as substrate by fluorescence assay; format: cell membranes
T2 sequence (Q16678 whole entry): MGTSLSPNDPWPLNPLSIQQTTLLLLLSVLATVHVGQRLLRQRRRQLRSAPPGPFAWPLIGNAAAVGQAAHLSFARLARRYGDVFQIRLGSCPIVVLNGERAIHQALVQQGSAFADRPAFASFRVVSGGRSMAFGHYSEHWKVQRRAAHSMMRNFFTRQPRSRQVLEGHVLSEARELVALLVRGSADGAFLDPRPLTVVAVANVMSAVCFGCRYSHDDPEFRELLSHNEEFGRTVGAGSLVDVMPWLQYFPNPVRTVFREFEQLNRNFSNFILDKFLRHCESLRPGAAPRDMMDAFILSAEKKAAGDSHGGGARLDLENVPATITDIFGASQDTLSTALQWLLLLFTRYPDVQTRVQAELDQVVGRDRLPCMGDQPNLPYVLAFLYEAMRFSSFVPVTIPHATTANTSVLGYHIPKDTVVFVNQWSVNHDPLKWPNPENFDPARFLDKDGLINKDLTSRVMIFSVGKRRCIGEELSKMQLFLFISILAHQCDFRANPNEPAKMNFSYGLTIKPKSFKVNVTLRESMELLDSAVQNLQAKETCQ

Cytochrome P450 3A4 [3] = target: T1, Cytochrome P450 3A4; assay: Inhibition of recombinant human CYP3A4 expressed in yeast microsomal membranes by fluorescence assay; format: ADME, cell membranes, Microsomal Membrane
CYP1B1 = target: T3, CYP1B1 (Homo sapiens, UniProt Q16678); assay: Inhibition of human CYP1B1 expressed in yeast microsomal membranes at 10 uM using 7-ethoxyresorufin as substrate by fluorescence assay relative to control; format: cell membranes; details: probe 7-ethoxyresorufin
T3 sequence (Q16678 whole entry): T2 sequence (Q16678 whole entry)

Cytochrome P450 1B1 [4] = target: T2, Cytochrome P450 1B1; assay: Inhibition of human CYP1B1 expressed in HEK293 cells by fluorescence assay; format: cell-based
CYP1A1 = target: T4, CYP1A1 (Homo sapiens, UniProt P04798); assay: Inhibition of recombinant human CYP1A1 expressed in yeast microsomal membranes at 10 uM by fluorescence assay relative to control; format: cell membranes
T4 sequence (P04798 whole entry): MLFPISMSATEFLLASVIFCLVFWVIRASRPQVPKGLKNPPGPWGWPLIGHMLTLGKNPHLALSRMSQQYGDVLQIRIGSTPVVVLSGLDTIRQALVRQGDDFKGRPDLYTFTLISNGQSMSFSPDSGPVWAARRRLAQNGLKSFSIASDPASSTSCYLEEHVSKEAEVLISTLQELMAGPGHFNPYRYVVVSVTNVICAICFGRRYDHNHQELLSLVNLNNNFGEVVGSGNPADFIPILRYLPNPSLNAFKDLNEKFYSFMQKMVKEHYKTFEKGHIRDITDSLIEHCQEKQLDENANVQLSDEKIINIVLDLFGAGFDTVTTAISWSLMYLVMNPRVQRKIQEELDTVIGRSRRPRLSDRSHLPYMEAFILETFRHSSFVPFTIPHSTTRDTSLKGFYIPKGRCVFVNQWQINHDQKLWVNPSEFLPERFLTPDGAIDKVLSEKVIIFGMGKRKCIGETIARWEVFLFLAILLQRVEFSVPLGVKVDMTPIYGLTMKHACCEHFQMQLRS

Cytochrome P450 1A2 [5] = target: T5, Cytochrome P450 1A2 (Homo sapiens, UniProt P05177); assay: Inhibition of human CYP1A2 expressed in HEK293 cells by fluorescence assay; format: ADME, cell-based
T5 sequence (P05177 whole entry): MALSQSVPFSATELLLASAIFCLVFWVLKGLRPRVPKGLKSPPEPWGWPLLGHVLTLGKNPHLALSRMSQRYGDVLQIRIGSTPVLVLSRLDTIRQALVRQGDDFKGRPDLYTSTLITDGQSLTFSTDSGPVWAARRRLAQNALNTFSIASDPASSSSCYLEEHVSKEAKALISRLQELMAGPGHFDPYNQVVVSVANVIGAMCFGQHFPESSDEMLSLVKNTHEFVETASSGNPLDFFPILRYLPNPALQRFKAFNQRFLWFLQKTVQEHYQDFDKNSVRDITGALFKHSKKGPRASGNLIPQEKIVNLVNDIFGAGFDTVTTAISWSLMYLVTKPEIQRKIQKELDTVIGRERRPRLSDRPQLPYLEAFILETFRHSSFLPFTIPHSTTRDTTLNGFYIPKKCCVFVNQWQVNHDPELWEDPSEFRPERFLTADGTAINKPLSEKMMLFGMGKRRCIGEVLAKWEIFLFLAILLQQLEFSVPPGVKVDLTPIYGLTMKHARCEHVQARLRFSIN

Cytochrome P450 2D6 [6] = target: T6, Cytochrome P450 2D6 (Homo sapiens, UniProt P10635); assay: Inhibition of human CYP2D6 expressed in HEK293 cells by fluorescence assay; format: ADME, cell-based
Cytochrome P450 1A1 [7] = target: T7, Cytochrome P450 1A1 (Homo sapiens, UniProt P04798); assay: Inhibition of recombinant human CYP1A1 expressed in yeast microsomal membranes by fluorescence assay; format: cell membranes
T7 sequence (P04798 whole entry): T4 sequence (P04798 whole entry)

Cytochrome P450 1A1 [8] = target: T7, Cytochrome P450 1A1; assay: Inhibition of human CYP1A expressed in HEK293 cells by fluorescence assay; format: ADME, cell-based
Cytochrome P450 2D6 [9] = target: T6, Cytochrome P450 2D6; assay: Inhibition of recombinant human CYP2D6 expressed in yeast microsomal membranes by fluorescence assay; format: ADME, cell membranes, Microsomal Membrane
Cytochrome P450 1A2 [10] = target: T5, Cytochrome P450 1A2; assay: Inhibition of recombinant human CYP1A2 expressed in yeast microsomal membranes by fluorescence assay; format: ADME, cell membranes, Microsomal Membrane

T6 sequence (P10635 whole entry): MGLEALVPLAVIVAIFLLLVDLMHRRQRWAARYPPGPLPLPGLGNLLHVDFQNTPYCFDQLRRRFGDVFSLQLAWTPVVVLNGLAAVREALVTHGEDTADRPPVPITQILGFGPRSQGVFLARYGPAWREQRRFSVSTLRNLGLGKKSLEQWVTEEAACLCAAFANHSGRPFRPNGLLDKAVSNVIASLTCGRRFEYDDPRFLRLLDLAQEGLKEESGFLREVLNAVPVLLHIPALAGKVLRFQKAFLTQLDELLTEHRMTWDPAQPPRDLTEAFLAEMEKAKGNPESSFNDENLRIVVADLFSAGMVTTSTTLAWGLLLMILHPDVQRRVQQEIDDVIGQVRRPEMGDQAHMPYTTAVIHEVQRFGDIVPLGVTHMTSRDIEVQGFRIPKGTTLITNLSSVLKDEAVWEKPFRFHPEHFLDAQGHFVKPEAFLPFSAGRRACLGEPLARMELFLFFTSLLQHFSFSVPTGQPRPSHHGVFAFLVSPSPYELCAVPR
T1 sequence (P08684 whole entry): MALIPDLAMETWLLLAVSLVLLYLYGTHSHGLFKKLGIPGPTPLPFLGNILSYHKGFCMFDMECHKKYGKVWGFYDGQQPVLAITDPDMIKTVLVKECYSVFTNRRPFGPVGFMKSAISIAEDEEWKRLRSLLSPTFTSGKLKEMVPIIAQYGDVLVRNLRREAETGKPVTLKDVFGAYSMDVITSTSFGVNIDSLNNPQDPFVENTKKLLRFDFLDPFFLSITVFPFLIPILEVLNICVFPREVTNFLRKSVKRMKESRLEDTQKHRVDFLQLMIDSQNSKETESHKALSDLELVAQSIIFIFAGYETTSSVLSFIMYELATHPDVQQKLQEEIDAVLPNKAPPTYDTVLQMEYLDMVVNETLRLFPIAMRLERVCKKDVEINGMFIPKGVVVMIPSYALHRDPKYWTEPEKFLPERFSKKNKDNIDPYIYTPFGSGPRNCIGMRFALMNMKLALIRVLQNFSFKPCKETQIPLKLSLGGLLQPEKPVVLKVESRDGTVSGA

Compound	inhibition at 10 µM (CYP1B1) [%]	inhibition at 10 µM (CYP1A1) [%]	also measured
CC(C)=CCc1cc(C2CC(=O)c3ccc(O)c(CC=C(C)C)c3O2)ccc1O (configuration not stated)	17.7	67.2	IC50 (Cytochrome P450 3A4 [1]): > 20 µM; IC50 (Cytochrome P450 1B1 [2]): > 20 µM; IC50 (Cytochrome P450 3A4 [3]): > 20 µM; IC50 (Cytochrome P450 1B1 [4]): 15 µM; IC50 (Cytochrome P450 1A2 [5]): > 20 µM; IC50 (Cytochrome P450 2D6 [6]): > 20 µM; IC50 (Cytochrome P450 1A1 [7]): 17.6 µM; IC50 (Cytochrome P450 1A1 [8]): > 20 µM; IC50 (Cytochrome P450 2D6 [9]): > 20 µM; IC50 (Cytochrome P450 1A2 [10]): > 20 µM
CC(C)=CCc1cc(C2Oc3c(ccc(O)c3CC=C(C)C)C(=O)C2O)ccc1O (configuration not stated)	7.5	31.4	
COc1ccc(C2COc3c(ccc4c3C=CC(C)(C)O4)C2)c(O)c1 (configuration not stated)	12	29.6	
O=C(/C=C/c1ccc(O[C@H]2O[C@@H](CO)[C@H](O)[C@@H](O)[C@@H]2O[C@@H]2OC[C@](O)(CO)[C@H]2O)cc1)c1ccc(O)cc1O	-9.5	11.4	
COc1ccc2c(c1)OC1c3ccc(O)cc3OCC21 (configuration not stated)	31.7	27.5	
O=c1cc(-c2ccccc2)oc2c1ccc1ccccc12 [ALPHA-NAPHTHOFLAVONE]		97	
CC1(C)[C@@H](O)CC[C@]2(C)[C@H]3C(=O)C=C4[C@@H]5C[C@@](C)(C(=O)O)CC[C@]5(C)CC[C@@]4(C)[C@]3(C)CC[C@@H]12 [ENOXOLONE]	-2.1	11.4	
COc1ccc(-c2coc3cc(O)ccc3c2=O)cc1 [FORMONONETIN]	-1.3	10.8	
CC1(C)C=Cc2c(ccc3c2OC[C@@H](c2ccc(O)cc2O)C3)O1 [GLABRIDIN]	26.6	36.8	
CC1(C)[C@@H](O[C@H]2O[C@H](C(=O)O)[C@@H](O)[C@H](O)[C@H]2O[C@@H]2O[C@H](C(=O)O)[C@@H](O)[C@H](O)[C@H]2O)CC[C@]2(C)[C@H]3C(=O)C=C4[C@@H]5C[C@@](C)(C(=O)O)CC[C@]5(C)CC[C@@]4(C)[C@]3(C)CC[C@@H]12 [GLYCYRRHIZIN]	10.5	39	
O=C(/C=C/c1ccc(O)cc1)c1ccc(O)cc1O [ISOLIQUIRITIGENIN]	3.1	22.3	
O=C1C[C@@H](c2ccc(O)cc2)Oc2cc(O)ccc21 [LIQUIRTIGENIN]	38.2	19.2	
O=c1c(O)c(-c2ccc(O)c(O)c2)oc2cc(O)cc(O)c12 [QUERCETIN]	67.2	31.5	IC50 (Cytochrome P450 2D6 [6]): > 20 µM; IC50 (Cytochrome P450 2D6 [9]): > 20 µM
